How the values were obtained:
Format in all cases: cell-based
[1] = tested on: ICAM-1 protein in human gingival epithelial Ca9-22 cells; assay: Effect of down-regulating expression of ICAM-1 induced by TNF-α (Western blot); conditions: co-treatment with TNF-α, 24 hours, FIG. 3
Procedure: Test solutions for evaluating the biological activities were prepared as follows. In evaluating the biological activities, all test solutions were prepared at the time of use. • (a) Approximately 1 mg of SAC and […] (cis:trans=15:85) were each precisely weighed and dissolved in 0.6 mL of purified water (10 mM). This solution was used as a stock solution and diluted appropriately to be subjected to the test. • (b) SAMC was dissolved in a culture medium for cell culture (containing 10% bovine serum albumin, […] penicillin, and 100 μg/mL streptomycin) (1 mM). This solution was used as a stock solution and diluted to be subjected to the test. (2) Cells for Evaluation Test Test cells (human gingival epithelial Ca9-22 cells) were purchased from the National Institute of Biomedical Innovation, Health and Nutrition. Immediately after purchasing, the culturing was initiated (5% CO2, 37° C.) Subculturing was carried out two or three times per week. […] A portion of the above protein supernatant was collected and the total protein concentration was calculated by BCA method. […] After reaction treatment, the proteins were washed with Tris-buffered saline three times, an HRP substrate was added thereto, and the luminescence intensity was detected by a luminoimage analyzer.

[2] = tested on: LL-37 gene in human gingival epithelial Ca9-22 cells; assay: Effect of promoting expression of LL-37 gene (quantitative real-time PCR); conditions: treatment for 24 hours, absence of HKPG, compared to untreated, FIG. 1
Procedure: (§1) Test solutions for evaluating the biological activities were prepared as follows. In evaluating the biological activities, all test solutions were prepared at the time of use. • (a) Approximately 1 mg of SAC and S1PC (cis:trans=15:85) were each precisely weighed and dissolved in 0.6 mL of purified water (10 mM). This solution was used as a stock solution and diluted appropriately to be subjected to the test. • (b) SAMC was dissolved in a culture medium for cell culture (containing 10% bovine serum albumin, […] penicillin, and 100 μg/mL streptomycin) (1 mM). This solution was used as a stock solution and diluted to be subjected to the test. (2) Cells for Evaluation Test
Test cells (human gingival epithelial Ca9-22 cells) were purchased from the National Institute of Biomedical Innovation, Health and Nutrition. […]
(§2) Using a reverse transcription kit (PrimeScript RT reagent kit with gDNA Eraser, RR047A, TAKARA), degradation of DNA remaining in total RNA and reverse transcription reaction from RNA to complementary DNA (cDNA) were carried out. Next, cDNA derived from the target gene was amplified by quantitative real-time polymerase chain reaction (PCR) using primers specific for LL-37 or hBD3 gene. The relative expression levels of LL-37 and hBD3 genes were calculated using beta-actin as an internal reference gene.

[3] = tested on: hBD3 gene in human gingival epithelial Ca9-22 cells; assay: Effect of promoting expression of hBD3 gene (quantitative real-time PCR)
Procedure: as §1
Test cells (human gingival epithelial Ca9-22 cells) were purchased from the National Institute of Biomedical Innovation, Health and Nutrition. Immediately after purchasing, the culturing was initiated (5% CO2, 37° C.) Subculturing was carried out two or three times per week.
The Ca9-22 cells were prepared to 1×10^5 cells/mL in a 10% serum-containing medium, seeded in a 12-well plate at 1 mL respectively, and cultured for 24-48 hours. Assay was carried out when the percentage of cells in each well reached nearly 100%. In the presence or absence of heat-sterilized Porphyromonas gingivalis (HKPG), a reagent was added and the culturing was continued for 24 hours. After completion of culturing, the culture supernatant was removed and […] was added, followed by treatment at room temperature for 5 minutes. RIPA buffer was collected from each well into tubes and chloroform was added (40 μL/tube), followed by treatment at room temperature for 2-3 minutes. After centrifugation (13,000 g, 5 min, 4° C.), the supernatant was transferred to a new tube and 2-propanol was added thereto (80 μL/tube), followed by treatment at room temperature for 10 minutes. After centrifugation (13,000 g, 10 min, 4° C.), the supernatant was removed, and 75% ethanol was added to the precipitate (200 μL/tube), and further centrifugation (13,000 g, 10 min, 4° C.) was carried out. After centrifugation (13,000 g, 10 min, 4° C.), the supernatant was removed, and the dried precipitate (total RNA) was dissolved in sterile water and cryopreserved at −80° C. until use.
as §2

[4] = tested on: IL-6 release from human gingival epithelial Ca9-22 cells; assay: Effect of reducing release of IL-6 induced by TNF-α (ELISA); conditions: co-treatment with TNF-α, 6 hours, FIGS. 4 and 5
Procedure: Test solutions for evaluating the biological activities were prepared as follows. In evaluating the biological activities, all test solutions were prepared at the time of use. • (a) Approximately 1 mg of SAC and […] (cis:trans=15:85) were each precisely weighed and dissolved in 0.6 mL of purified water (10 mM). This solution was used as a stock solution and diluted appropriately to be subjected to the test. • (b) SAMC was dissolved in a culture medium for cell culture (containing 10% bovine serum albumin, […] penicillin, and 100 μg/mL streptomycin) (1 mM). This solution was used as a stock solution and diluted to be subjected to the test. (2) Cells for Evaluation Test Test cells (human gingival epithelial Ca9-22 cells) were purchased from the National Institute of Biomedical Innovation, Health and Nutrition. Immediately after purchasing, the culturing was initiated (5% CO2, 37° C.) Subculturing was carried out two or three times per week. […] IL-6 ELISA Ready-SET-Go! Kit was purchased from eBioscience, Inc. to measure the amount of IL-6 produced. […] A horseradish peroxidase (HRP)-labeled secondary antibody and chromogenic substrate were added thereto and then the absorbance was measured by using a plate reader. […] After completion of culturing, the supernatant was collected and the concentration of IL-6 was measured by ELISA.

[5] = 300 μM, presence of 10^7/mL HKPG (heat-sterilized Porphyromonas gingivalis), FIG. 2
[6] = treatment for 24 hours, absence of HKPG

| Compound | expression of ICAM-1 protein induced by TNF-α [1] | expression level of LL-37 gene [2] | expression level of hBD3 gene [3, 5] | expression level of hBD3 gene [3, 6] | amount of released IL-6 induced by TNF-α [4] |
| --- | --- | --- | --- | --- | --- |
| CC=CSC[C@H](N)C(=O)O [S1PC, S-1-propenylcysteine] | concentration-dependently down-regulated | significantly increased | significantly increased | no change | – |
| C=CCSC[C@H](N)C(=O)O [SAC, S-allylcysteine] | – | significantly increased | significantly increased | no change | concentration-dependently reduced |
| C=CCSSCC(N)C(=O)O (stereo not drawn) [SAMC, S-allylmercaptocysteine] | – | – | – | – | concentration-dependently reduced |
